According to patent US6133311A, “Method for preventing or treating elevated blood lipid level-related diseases by administering natural phenolic compounds” (priority 1998, dated 2000):

Columns and labels:
[1] = chemical analysis of blood of rabbits fed a high-cholesterol diet; format: in vivo, New Zealand White rabbits; conditions: for TG (triglyceride): Control 56 ± 38; for TC (total cholesterol): Control 1143 ± 260
Experimental: Effect of Tannin, Gallic acid or Ellagic acid in an Animal
(Step 1) Administration of tannin, gallic acid or ellagic acid to rabbits
(§1) 30 three-month-old male New Zealand White rabbits (Yeonam Horticulture and Animal Husbandry College, Korea), each weighing about 2.5 to 2.6 kg, were raised under a condition of temperature 20+2° C., relative humidity 55±5%, and photoperiod 12L/12D. The rabbits were divided into 5 groups and 5 groups of rabbits were fed with 5 different diets, i.e., RC4 diet (Oriental Yeast Co., Japan) containing 1% cholesterol (Control group, 1); 1% cholesterol plus 1 mg/kg Lovastatin® (Merck, U.S.A.) (Lovastatin® group, 2); 1% cholesterol plus 0.1% tannin (3); 1% cholesterol plus 0.1% gallic acid (4); and 1% cholesterol plus 0.1% ellagic acid (5), respectively. RC4 diet comprises 7.6% moisture, 22.8% crude protein, 2.8% crude fat, 8.8% crude ash, 14.4% crude cellulose and 43.6% soluble nitrogen-free substances. Tannin, gallic acid and ellagic acid were purchased from Sigma Chemical Co. (St. Louis, Mo.).
(§2) The rabbits were fed for 6 weeks while being allowed free access to the diets and water.
(Step 2) Chemical Analysis of Blood
After six weeks, the rabbits were anesthetized with an intramuscular injection of ketamine (50 mg/kg) in the femoral region and sacrificed. A blood sample was taken from the heart of each rabbit, allowed to stand for 2 hours and centrifuged at 3,000 rpm for 15 minutes and the supernatant serum was separated and stored in a freezer before use.
The chemical analysis of blood was carried out by employing a blood chemical analyzer (CIBA Corning 550 Express, USA) to determine the changes in GOT, GPT, γGTP, total cholesterol, HDL-cholesterol and triglyceride levels.

[2] = tested on: main artery (arterial endothelium); test: analysis for fatty streak in the main artery of rabbits; format: in vivo, New Zealand White rabbits; conditions: for Fatty streak (proportion of stained region to total arterial area): 1% cholesterol diet plus 0.1% compound (Lovastatin 1 mg/kg), Control 35 ± 14; for layer of macrophage-lipid complex on the arterial endothelium: FIGS. 1B and 1C, control: thick layer
Experimental: as §1, §2
(Step 3) Analysis for fatty streak in the main artery
The chest of each of the rabbits sacrificed in Step 2 was incised. The downward portion of the main artery from the site 1 cm above the aortic valve was cut out in a length of about 5 cm and the fat surrounding the main artery was removed. The main artery was incised in the middle along the longitudinal axis and pinned to a dish. The moist artery was photographed and, then, the staining of fatty streaks was carried out in accordance with the method of Esper, E., et al. (J. Lab. Clin. Med., 121, 103-110 (1993)) as follows.
A part of the incised main artery was washed three times with anhydrous propylene glycol for 2 min. and stained for 30 min. with a saturated solution of Oil Red O (ORO, Sigma Co.) dissolved in propylene glycol. Thereafter, the artery was washed twice with 85% propylene glycol for 3 min. to remove remaining staining solution and, then washed with physiological saline. The artery was photographed and the photograph was traced. The area of stained region (fatty streak region) was determined with an image analyzer (LEICA, Q-600, Germany) and its proportion (%) to the total arterial area was calculated.
FIGS. 1A, 1B and 1C show the arteries of the rabbits administered with 1% cholesterol (Control group); 1% cholesterol plus 1 mg/kg Lovastatin® (Lovastatin® group); 1% cholesterol plus 0.1% ellagic acid, respectively.

[3] = tested on: liver cells around the central vein; test: fatty liver: proportion of abnormal fat-containing cells in the liver of rabbits; format: in vivo, New Zealand White rabbits; conditions: for A: Proportion of abnormal fat-containing liver cells (grade): 1% cholesterol diet plus 0.1% compound (Lovastatin 1 mg/kg), mean of grades 1+ to 4+, Control 3.2 ± 0.3; for microscopic features of the liver: FIGS. 2B and 2C, around the central vein
Experimental: as §1, §2
(Step 5) Prevention of Hepatic Diseases

[4] = tested on: LDL receptor in the liver; conditions: Farmer, J. A., et al. (1995), cited from earlier work; for plasma LDL cholesterol level: by enhancing the activity of LDL receptor in the liver
[5] = rabbits, 1% cholesterol diet plus 0.1% compound (Lovastatin 1 mg/kg), 6 weeks

Row | Compound | effect on the liver function (adverse) ([1]; rabbit, in vivo) | TG (triglyceride) [1, 5] [mg/dL] | TC (total cholesterol) [1, 5] [mg/dL] | lipid metabolism and liver function ([1]; rabbits, 6 weeks) | Fatty streak (proportion of stained region to total arterial area) ([2]; 6 weeks) [%] | plaque formation in the endothelium of the main artery ([2]; 6 weeks) | layer of macrophage-lipid complex on the arterial endothelium ([2]; 6 weeks) | deposition of macrophages on the arterial endothelium ([2]; blood cholesterol level high) | A: Proportion of abnormal fat-containing liver cells (grade) ([3]; 6 weeks) | inhibition of the formation of fatty liver ([3]; 1% cholesterol diet, 6 weeks) | microscopic features of the liver [3] | γGTP ([1]; rabbits, 1% cholesterol diet plus 0.1% compound (Lovastatin 1 mg/kg), 6 weeks, Control 4.2 ± 0.9) [IU/l] | GPT ([1]; rabbits, 1% cholesterol diet plus 0.1% compound (Lovastatin 1 mg/kg), 6 weeks, Control 65 ± 9) [IU/l] | GOT ([1]; rabbits, 1% cholesterol diet plus 0.1% compound (Lovastatin 1 mg/kg), 6 weeks, Control 77 ± 8) [IU/l] | side effects [4] | plasma LDL cholesterol level [4]
1 | O=c1oc2c(O)c(O)cc3c(=O)oc4c(O)c(O)cc1c4c23 [Ellagic acid, ellagic acid] | do not adversely affect on the liver function | 25 ± 10 | 1000 ± 105 | can improve | 9 ± 2 | inhibit | no or very thin layers of macrophage-lipid complex | strongly inhibit | 2.7 | significantly inhibit the formation of fatty liver | almost all liver cells are of a normal shape | – | – | – | – | –
2 | CC[C@H](C)C(=O)O[C@H]1C[C@@H](C)C=C2C=C[C@H](C)[C@H](CC[C@@H]3C[C@@H](O)CC(=O)O3)[C@H]21 [Lovastatin®, reference compound] | – | 66 ± 17 | 1210 ± 263 | – | 5 | – | no or very thin layers of macrophage-lipid complex | – | 3.4 ± 0.5 | – | many cells containing excessive fat were observed around the central vein | 12.4 ± 0.8 | 73 ± 9 | 125 ± 19 | increase in creatine kinase in the liver and rhabdomyolysis | may reduce the plasma LDL cholesterol level
3 | CCC(C)(C)C(=O)O[C@H]1C[C@@H](C)C=C2C=C[C@H](C)[C@H](CC[C@@H]3C[C@@H](O)CC(=O)O3)[C@H]21 [Simvastatin®] | – | – | – | – | – | – | – | – | – | – | – | – | – | – | – | may reduce the plasma LDL cholesterol level
